Laboratory results: the supplement of paper PMC11208160

Test: recombinant UMI read abundance after kanamycin selection (control-corrected) (log10(CPM+1)); higher = more efficient recombination; extreme values may be limits of the assay; sequences stand for … in AGTGCAGAGAAAATCGGCCAGTTTTCTCTGCCTGCAGTCCGCATGCCGTGGGACCCCTTGGGTTCTAACCTGTTGCCTAGATTTATGCAGCGGACTGCCTTTCTCCCAAAGTGATAAACCGG…AGGTTGGTTTCACT; site = the 11-nt donor
Summary of the method: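 Each donor and donor-binding-loop pair was tracked by a 12-nt UMI on a plasmid carrying a promoterless kanamycin gene. With a second plasmid supplying a fixed target and T7-inducible IS621 bridge recombinase, the pool was plated in Escherichia coli on IPTG (0.07 mM) plus kanamycin or unselected. Sequencing of recombinant UMIs across the donor–target junction gave counts expressed as log10(CPM+1) after replicate averaging and control-derived scaling.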
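Further: IS621 bridge recombinase in Escherichia coli cells against a fixed T5 target plasmid.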

Sequence | recombinant UMI read abundance (log10)
TCGTTAGCATGGACCGGTTTTCCCGGTAATCCGTATTTGTG (site TCGTTAGCTCA) | 0.255
TCGTTGTCATGGACCGGTTTTCCCGGTAATCCGTATTTGAA (site TCGTTGTCTTT) | 0.876
TCGTTGTCATGGACCGGTTTTCCCGGTAATCCGTATTTGTC (site TCGTTGTCTGA) | 0.41
TCGTTTACATGGACCGGTTTTCCCGGTAATCCGTATTTGCT (site ACGTTTACTAG) | 0
TCGTTTACATGGACCGGTTTTCCCGGTAATCCGTATTTGCT (site CCGTTTACTAG) | 0
TCGTTTACATGGACCGGTTTTCCCGGTAATCCGTATTTGCT (site GCGTTTACTAG) | 0
TCGTTTACATGGACCGGTTTTCCCGGTAATCCGTATTTGCT (site TCGTTTACTAG) | 1.68
TCTAACACATGGACCGGTTTTCCCGGTAATCCGTATTTGTC (site TCTAACACTGA) | 0
TCTAATACATGGACCGGTTTTCCCGGTAATCCGTATTTGGC (site ACTAATACTGC) | 0
TCTAATACATGGACCGGTTTTCCCGGTAATCCGTATTTGGC (site CCTAATACTGC) | 0
TCTAATACATGGACCGGTTTTCCCGGTAATCCGTATTTGGC (site GCTAATACTGC) | 0
TCTAATACATGGACCGGTTTTCCCGGTAATCCGTATTTGGC (site TCTAATACTGC) | 0
TCTAATACATGGACCGGTTTTCCCGGTAATCCGTATTTGGT (site TCTAATACTAC) | 0.0331
TCTAATTCATGGACCGGTTTTCCCGGTAATCCGTATTTGCC (site TCAAATTCTGG) | 0
TCTAATTCATGGACCGGTTTTCCCGGTAATCCGTATTTGCC (site TCCAATTCTGG) | 0
TCTAATTCATGGACCGGTTTTCCCGGTAATCCGTATTTGCC (site TCGAATTCTGG) | 0
TCTAATTCATGGACCGGTTTTCCCGGTAATCCGTATTTGCC (site TCTAATTCTGG) | 0
TCTACCGCATGGACCGGTTTTCCCGGTAATCCGTATTTGCG (site TCAACCGCTCG) | 0.00715
TCTACCGCATGGACCGGTTTTCCCGGTAATCCGTATTTGCG (site TCCACCGCTCG) | 0.0035

Sequence | recombinant UMI read abundance (log10)
TCTACCGCATGGACCGGTTTTCCCGGTAATCCGTATTTGCG (site TCGACCGCTCG) | 0.0889
TCTACCGCATGGACCGGTTTTCCCGGTAATCCGTATTTGCG (site TCTACCGCTCG) | 0.0133
TCTAGAACATGGACCGGTTTTCCCGGTAATCCGTATTTGTC (site TCTAGAACTGA) | 0
TCTAGGCCATGGACCGGTTTTCCCGGTAATCCGTATTTGGA (site TCTAGGCCTTC) | 0.0125
TCTAGTGCATGGACCGGTTTTCCCGGTAATCCGTATTTGGT (site ACTAGTGCTAC) | 0.0111
TCTAGTGCATGGACCGGTTTTCCCGGTAATCCGTATTTGGT (site CCTAGTGCTAC) | 0.229
TCTAGTGCATGGACCGGTTTTCCCGGTAATCCGTATTTGGT (site GCTAGTGCTAC) | 0
TCTAGTGCATGGACCGGTTTTCCCGGTAATCCGTATTTGGT (site TCTAGTGCTAC) | 0.0256
TCTATAACATGGACCGGTTTTCCCGGTAATCCGTATTTGGG (site TCTATAACTCC) | 0.0262
TCTATAGCATGGACCGGTTTTCCCGGTAATCCGTATTTGAC (site TCTATAGCTGT) | 0
TCTGAAGCATGGACCGGTTTTCCCGGTAATCCGTATTTGGT (site TCTGAAGCTAC) | 0.00288
TCTGAATCATGGACCGGTTTTCCCGGTAATCCGTATTTGAC (site TCTGAATCTGT) | 0
TCTGCGGCATGGACCGGTTTTCCCGGTAATCCGTATTTGAT (site TCTGCGGCTAT) | 0.0332
TCTGCGGCATGGACCGGTTTTCCCGGTAATCCGTATTTGTT (site TCTGCGGCTAA) | 0.0132
TCTGTTCCATGGACCGGTTTTCCCGGTAATCCGTATTTGAG (site TCTGTTCCTCT) | 0.0103
TCTTAAACATGGACCGGTTTTCCCGGTAATCCGTATTTGCA (site TCTTAAACTTG) | 0
TCTTACACATGGACCGGTTTTCCCGGTAATCCGTATTTGCC (site TCTTACACTGG) | 0.565
TCTTCAGCATGGACCGGTTTTCCCGGTAATCCGTATTTGTG (site TCTTCAGCTCA) | 0.0132
TCTTCATCATGGACCGGTTTTCCCGGTAATCCGTATTTGTA (site TCTTCATCTTA) | 0.00251

Sequence | recombinant UMI read abundance (log10)
TCTTTCTCATGGACCGGTTTTCCCGGTAATCCGTATTTGCT (site TCTTTCTCTAG) | 0
TGAAAATCATGGACCGGTTTTCCCGGTAATCCGTATTTGTG (site TGAAAATCTCA) | 1
TGAAGGACATGGACCGGTTTTCCCGGTAATCCGTATTTGAC (site TGAAGGACTGT) | 2.4
TGAATAACATGGACCGGTTTTCCCGGTAATCCGTATTTGCA (site TGAATAACTTG) | 1.38
TGACCGACATGGACCGGTTTTCCCGGTAATCCGTATTTGAT (site TGACCGACTAT) | 0.561
TGAGAGACATGGACCGGTTTTCCCGGTAATCCGTATTTGCG (site TAAGAGACTCG) | 2.07
TGAGAGACATGGACCGGTTTTCCCGGTAATCCGTATTTGCG (site TCAGAGACTCG) | 0.426
TGAGAGACATGGACCGGTTTTCCCGGTAATCCGTATTTGCG (site TGAGAGACTCG) | 2.22
TGAGAGACATGGACCGGTTTTCCCGGTAATCCGTATTTGCG (site TTAGAGACTCG) | 1.19
TGAGGTGCATGGACCGGTTTTCCCGGTAATCCGTATTTGGT (site TGAGGTGCTAC) | 0.98
TGAGGTTCATGGACCGGTTTTCCCGGTAATCCGTATTTGAC (site TGAGGTTCTGT) | 2.17
TGAGTCGCATGGACCGGTTTTCCCGGTAATCCGTATTTGTG (site TGAGTCGCTCA) | 0.474
TGATAATCATGGACCGGTTTTCCCGGTAATCCGTATTTGCT (site CGATCATCTAG) | 0
TGATAATCATGGACCGGTTTTCCCGGTAATCCGTATTTGCT (site TGATAATCTAG) | 2.45
TGATTCCCATGGACCGGTTTTCCCGGTAATCCGTATTTGAC (site TGATTCCCTGT) | 0.794
TGCAAGGCATGGACCGGTTTTCCCGGTAATCCGTATTTGGT (site TGCAAGGCTAC) | 0.43
TGCAAGGCATGGACCGGTTTTCCCGGTAATCCGTATTTGGT (site TGCCAGGCTAC) | 0.0164
TGCAAGGCATGGACCGGTTTTCCCGGTAATCCGTATTTGGT (site TGCGAGGCTAC) | 0.0243
TGCAAGGCATGGACCGGTTTTCCCGGTAATCCGTATTTGGT (site TGCTAGGCTAC) | 0.0166
